pIC50: −log10 of the molar value. Active and inactive are the calls of the source. How the calls were made is not given here.

Test [1] in a line: concentration-response yeast growth inhibition under permissive conditions, counter-assay for yeast lifespan-shortening chemical project (AID 850).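 Further: growth read as optical density after one day of incubation.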 The following applies: Saccharomyces cerevisiae growth inhibition, permissive control, measured here: maximum growth inhibition, stronger effect = higher value.
For test [2], the system named is Saccharomyces cerevisiae growth inhibition, permissive control. The description is as above.

On to `Clc1ccc(COC(Cn2ccnc2)c2ccc(Cl)cc2Cl)c(Cl)c1` (stereo unspecified), for which the inhibition in test [1] (at 50 µM) turned out to be 101%. In test [2], the pIC50 is above 7.01.
For the compound `Cc1cc(C(=O)COC(=O)c2ccc[nH]c2=O)c(C)n1-c1ccc(Br)cc1`, in test [1] (at 50 µM), the inhibition amounted to 4.13%. For the same compound, the IC50 in test [2] was > 100 µM (inactive).
In the case of `Cc1nc(N/N=C/c2ccccn2)sc1C`, the inhibition in test [1] (at 50 µM) was 99.8%. Besides, the pIC50 in test [2] is 4.59.
In the case of `Oc1c(Cl)cc(Cl)c(Cl)c1Cc1c(O)c(Cl)cc(Cl)c1Cl`, the inhibition in test [1] (at 6.25 µM) came to 23.3%. Moreover, the IC50 in test [2] was > 100 µM (inactive).
The corresponding values for `COC(=O)Cn1c2ccccc2c2nc(C)sc21` are 28.7% and > 100 µM (inactive).
As to `Oc1c(CN2CCc3ccccc3C2)cc(Cl)c2cccnc12`, the inhibition in test [1] (at 50 µM) was 101%. The pIC50 in test [2] was 4.94.
Consider `CCCCOc1ccc(C(=O)NNC(=S)NC(=O)CC)cc1`, for which, in test [1] (at 50 µM), the inhibition stood at 81.6%. Besides, the pIC50 in test [2] is 4.61.
The like results for `Cn1c(SCC(=O)N/N=C/c2ccc([N+](=O)[O-])s2)nnc1-c1ccc(Cl)cc1` were, in that order, 99.2% and 4.53.
In the case of `CC(=O)N1c2ccccc2C2(O)N=C(C)SC12` (stereo unspecified), the inhibition in test [1] (at 50 µM) amounted to 16%. In test [2], the IC50 was > 100 µM (inactive).
For `COc1ccccc1N1CCN(Cc2cc(Br)c(O)c3ncccc23)CC1`, the inhibition in test [1] (at 50 µM) turned out to be 99.6%. Also, the pIC50 in test [2] was 4.90.
The corresponding values for `Cc1nn(-c2ccc(F)cc2)c2sc(C(=O)O)cc12` are 60.6% and 4.31.
For the compound `Cc1ccc(CNC(=O)c2ccc(Cn3nc(C)c(Cl)c3C)o2)cc1`, in test [1] (at 50 µM), the inhibition was 99.8%. Moreover, in test [2], the pIC50 is 4.76.
`CC1CCCC2(C1)NC(=S)c1c(sc3c1CCCC3)N2` (stereo unspecified): in test [1] (at 0.781 µM), the inhibition turned out to be 10.2%. The IC50 in test [2] was > 100 µM (inactive).
Regarding `c1cnc2c(c1)ccc1cccnc12`, in test [1] (at 50 µM), the inhibition was determined as 100%. Also, the pIC50 in test [2] is 5.08.
Take `NC(N)=N/N=C/c1ccc(OCc2ccc(Cl)cc2)cc1`: in test [1] (at 50 µM), the inhibition was 81.6%. In addition, the pIC50 in test [2] is 4.46.
The corresponding values for `Cc1cccc(C(=O)O/N=C/c2c(N3CCOCC3)n(C)c3ccccc23)c1` are 48.1% and 4.30.
The like results for `Cc1cccc(C(=O)CC(=O)c2cc(Cl)ccc2O)c1` were, in that order, 52.9% and 4.45.
As to `CCCC1COC(Cn2cncn2)(c2ccc(Cl)cc2Cl)O1` (stereo unspecified), in test [1] (at 3.125 µM), the inhibition is 97.3%. In test [2], the pIC50 is 6.74.
As to `Cc1conc1NC(c1cccs1)c1ccc2cccnc2c1O` (stereo unspecified), in test [1] (at 50 µM), the inhibition stood at 69.2%. Further, the pIC50 in test [2] was 4.35.
As for `O=C1NC(=S)N(c2ccccc2F)C(=O)/C1=C\c1cccs1`, in test [1] (at 50 µM), the inhibition was found to be 91.4%. For the same compound, the pIC50 in test [2] was 4.87.
Take `Oc1c(Br)cc(Br)cc1Oc1ccc(Br)cc1Br`: the inhibition in test [1] (at 3.125 µM) came to 4.84%. For the same compound, the IC50 in test [2] is > 100 µM (inactive).
Regarding `O=C(Nc1nnc(-c2ccc(F)cc2)o1)c1cc(Cl)sc1Cl`, the inhibition in test [1] (at 50 µM) worked out at 81.8%. Further, in test [2], the pIC50 is 4.43.
For `O=C1NCCCC1C(=O)N/N=C/c1cccc(O)c1` (stereo unspecified), the inhibition in test [1] (at 1.563 µM) was found to be 16%. Besides, the IC50 in test [2] is > 100 µM (inactive).
Consider `COc1ccc2c(c1)S/C(=C\C(=O)c1ccncc1)N2C`, for which the inhibition in test [1] (at 50 µM) is 92.6%. The negative-log IC50 (pIC50) in test [2] was 5.20.
The corresponding values for `Cc1ccccc1N=Cc1cccc(O)c1O` are 99.2% and 5.12.
`O=C(/C=C/c1ccccc1)c1cc(Br)ccc(=O)c1O`: the inhibition in test [1] (at 50 µM) came out at 98.8%. The pIC50 in test [2] was 4.91.
As for `CC(C)(C)C(O)C(Oc1ccc(Cl)cc1)n1cncn1` (stereo unspecified), in test [1] (at 12.5 µM), the inhibition came to 95.1%. Besides, the negative-log IC50 (pIC50) in test [2] is 5.67.
Take `Cc1oc(-c2ccc3c(c2)OCCO3)cc1C(=O)O`: the inhibition in test [1] (at 25 µM) was found to be 48.3%. Further, in test [2], the pIC50 was 4.32.
Regarding `Nc1c(Cl)ncnc1N/N=C/c1ccccn1`, the inhibition in test [1] (at 50 µM) came to 99.2%. The pIC50 in test [2] is 5.07.
The like results for `CCc1cc2c(=O)[nH]c(-c3ccccn3)nc2s1` were, in that order, 86.2% and 4.63.
The corresponding values for `O=C1c2ccccc2NC(c2ccc(-c3ccc(Br)cc3)o2)N1O` (stereo unspecified) are 99% and 4.72.
On to `CCOC(=O)c1c(NC(=S)Nc2ccc(Cl)cc2)sc2c1CCN(C)C2`, for which the inhibition in test [1] (at 25 µM) is 99.8%. In addition, the pIC50 in test [2] is 5.09.
For `Cc1noc2ncnc(Sc3ccccc3Cl)c12`, the inhibition in test [1] (at 50 µM) is 69%. For the same compound, the pIC50 in test [2] is 4.40.
With `COc1ccc(OCc2nnc3n2N=C(c2ccc(OC)cc2)CS3)cc1`, the inhibition in test [1] (at 0.781 µM) is 20.9%. For the same compound, in test [2], the IC50 was > 100 µM (inactive).
With `O=[N+]([O-])c1ccc(Cl)c(S(=O)(=O)N2CCCCCC2)c1`, the inhibition in test [1] (at 50 µM) was determined as 58.1%. Further, the pIC50 in test [2] was 4.50.
In the case of `Cc1cccc(NC(=O)CC2SC(=O)N(c3ccccc3)C2=O)c1` (stereo unspecified), the inhibition in test [1] (at 50 µM) was -6.43%. Besides, the IC50 in test [2] is > 100 µM (inactive).
On to `N=c1n(CCN2CCOCC2)c2ccccc2n1CC(=O)c1ccc(Cl)c(Cl)c1`, for which the inhibition in test [1] (at 50 µM) came to 61.4%. Also, the pIC50 in test [2] was 4.45.
The corresponding values for `CN1C(=O)/C(=N/OC(=O)c2ccccc2)c2ccccc21` are 90.8% and 4.33.
The corresponding values for `O=C(O)CSc1nc(-c2ccc(Cl)cc2)nc2c1oc1ccccc12` are 86.6% and 4.49.
Turning to `Cc1ccc(/C=C2\C(=O)Nc3ccccc32)o1`, the inhibition in test [1] (at 25 µM) came out at 26.6%. Further, the IC50 in test [2] is > 100 µM (inactive).
Turning to `CCc1cccc(CC)c1NC(=S)NCc1ccc2[nH]c(C)cc2c1`, in test [1] (at 50 µM), the inhibition is 13.8%. In test [2], the IC50 is > 100 µM (inactive).
Consider `CCCCOC(=O)Sc1nc2ccccc2o1`, for which the inhibition in test [1] (at 50 µM) came out at 101%. In addition, the pIC50 in test [2] was 4.84.
With `Cc1nc2ccc(C(=O)O)cc2[nH]1`, the inhibition in test [1] (at 0.391 µM) amounted to 27.5%. Also, the IC50 in test [2] was > 100 µM (inactive).
For `COc1ccc2cc(C(=O)O)ccc2c1`, the inhibition in test [1] (at 50 µM) worked out at 72.1%. For the same compound, the pIC50 in test [2] was 4.69.
The like results for `Cc1cc(C)cc(N=Cc2ccc([N+](=O)[O-])s2)c1` were, in that order, 100% and 4.91.
In the case of `CCc1ccc(C2NC(=S)NC3=C2C(=O)N(c2ccccc2OC)C(c2ccc(CC)cc2)N3)cc1` (stereo unspecified), the inhibition in test [1] (at 0.781 µM) turned out to be 2.18%. Besides, in test [2], the IC50 is > 100 µM (inactive).
Take `O=C(C1=C(O)/C(=C/c2ccc(O)cc2)CCC1)C(F)(F)F`: in test [1] (at 0.195 µM), the inhibition was found to be 7.72%. In addition, in test [2], the IC50 was > 100 µM (inactive).
Turning to `Cc1ccc(C(=O)c2c(C)oc3c2C(=O)C(=O)c2ccccc2-3)cc1`, the inhibition in test [1] (at 50 µM) came out at 95.5%. For the same compound, the negative-log IC50 (pIC50) in test [2] was 4.36.
The like results for `O=c1oc2ccccc2c(O)c1/C=C1\C=Nc2ccccc21` were, in that order, 93.2% and 5.30.
The like results for `CC(Oc1ccc(Cl)cc1Cl)C(=O)NC1=NN(c2ccccc2)C(=O)C1` (stereo unspecified) were, in that order, 98.6% and 4.78.
For `CC(Oc1ccc2ccccc2c1)C(=O)NNC(=S)NC(=O)c1ccco1` (stereo unspecified), in test [1] (at 50 µM), the inhibition is 98.6%. For the same compound, the pIC50 in test [2] is 4.95.
Consider `CC(C)(C)c1ccc(NC(=O)COC(=O)c2ccc([N+](=O)[O-])s2)cc1`, for which the inhibition in test [1] (at 50 µM) worked out at 56.3%. The pIC50 in test [2] was 4.31.
The like results for `Cc1cc(-c2ccco2)c(C#N)c2nc3ccccc3n12` were, in that order, 77.8% and 5.06.
Take `Oc1cccc(C=NCc2ccccc2)c1O`: the inhibition in test [1] (at 50 µM) turned out to be 98.8%. Besides, the negative logarithm of the IC50 (pIC50) in test [2] is 4.98.
For the compound `C/C(O)=c1/ccc2cccc3nc(C)nc1c23`, the inhibition in test [1] (at 25 µM) came out at 24.2%. Further, in test [2], the IC50 was > 100 µM (inactive).
Take `Cn1cccc1C(=O)NC(=O)CSc1cccc[n+]1[O-]`: the inhibition in test [1] (at 50 µM) is 97.5%. Besides, the pIC50 in test [2] was 4.61.
The corresponding values for `O=c1c2sc(-c3ccccc3)cc2nc2n1CCC2` are 83.4% and 4.83.
`CC(C)CNC(=O)CN(C1CCCCC1)S(C)(=O)=O`: the inhibition in test [1] (at 1.563 µM) is 9.04%. In test [2], the IC50 was > 100 µM (inactive).
For `Cc1ccc(-c2nn3c(C)nnc3s2)cc1NC(=O)c1ccc(OC(C)C)cc1`, the inhibition in test [1] (at 0.098 µM) was found to be 17.3%. Besides, the IC50 in test [2] was > 100 µM (inactive).
Consider `O=C(O)c1ccc(SCc2cnc(Cl)s2)cc1`, for which the inhibition in test [1] (at 50 µM) is 99.2%. The pIC50 in test [2] was 5.31.
On to `C=CCn1cnc2c(c1=O)c1nc3ccccc3nc1n2/N=C/c1cc(OC)c(OC)c(OC)c1`, for which the inhibition in test [1] (at 25 µM) was 46.7%. In test [2], the pIC50 is 4.59.
As to `CC1(C)CC(=NOC(=O)c2ccccc2)CC(C)(C)N1O`, the inhibition in test [1] (at 50 µM) is 98.6%. In addition, the pIC50 in test [2] was 4.85.
The like results for `CCOC(=O)c1c(/N=C/c2cccc([N+](=O)[O-])c2O)sc(C)c1C` were, in that order, 58.5% and 4.51.
Consider `CCC(C)NC(=O)C1CCN(S(=O)(=O)c2cccc3cccnc23)CC1` (stereo unspecified), for which the inhibition in test [1] (at 50 µM) was found to be 12.2%. Besides, the IC50 in test [2] is > 100 µM (inactive).
As for `Oc1c(CN2CCN(c3ccccn3)CC2)cc(Cl)c2cccnc12`, in test [1] (at 50 µM), the inhibition is 95.9%. Moreover, in test [2], the pIC50 is 4.58.
With `c1ccc(-c2nc3nonc3nc2-c2ccccc2)cc1`, the inhibition in test [1] (at 1.563 µM) is -1.92%. Also, the IC50 in test [2] was > 100 µM (inactive).
With `Cc1ccc(-c2nn(C(C)(C)C)c3ncnc(N)c23)cc1`, the inhibition in test [1] (at 50 µM) came out at 84.2%. Moreover, the pIC50 in test [2] was 6.34.
For the compound `Fc1ccc(-c2ccc(-c3nn4c(-c5ccco5)nnc4s3)o2)cc1`, the inhibition in test [1] (at 6.25 µM) worked out at 13.4%. For the same compound, in test [2], the IC50 was > 100 µM (inactive).

As a reminder, the inhibition is the change of the read-out against control, counted positive when it falls. Usually pIC50 stands for the IC50 on a negative log10 scale, so that one unit is a factor of ten. As usually defined, the IC50 is the midpoint of a concentration-inhibition curve.

Source of the values: PubChem BioAssay AID850 (SRMLSC, 2007).
